Test: Physical and chemical properties: solubility
Type: physicochemical
Conditions: in water, methanol, DMSO
Procedure: The physical and chemical properties, hydrogen spectrum and mass spectrometry detection data of each compound are as follows:
It is calculated by a HR-ESI-MS [m/z 225.1406, calculated value being 225.1465] that a molecular weight of the compound is 202, a molecular formula is C12H14N2O, and a degree of unsaturation is 7.
It is calculated by the HR-ESI-MS [m/z 225.1406, calculated value being 225.1465] that a molecular weight of the compound is 202, a molecular formula is C12H14N2O, and a degree of unsaturation is 7.

solubility	SMILES
easily soluble in water, methanol, DMSO	C[C@H]1N[C@H](O)Cc2c1[nH]c1ccccc21 [Compound 1, Noni alkaloid C]
easily soluble in water, methanol, DMSO	C[C@H]1N[C@@H](O)Cc2c1[nH]c1ccccc21 [Compound 2, Noni alkaloid D]
